Test results taken from patent US20250340837A1, “CELLS” (University of Geneva, priority 2022, published 2025).

System: C57Bl/6 otic progenitors
Assay: Stemness reprogramming and regeneration in hair cell progenitors
Assay type: cell-based, mouse
Conditions: 30 days, with CHIR99021 3 μM
Method: C57Bl/6 otic progenitors were plated at 10,000 cells/well of a 96 well plate and treated with WNT agonist (CHIR99021; 3 μM) and the above mentioned compounds for 30 days. (A) Graph representing the average growth (% otic progenitors cultured in presence of GF+CHIR) after 30 days. […] Data represent the average±SEM of three independent experiments.
For reprogramming stemness of auditory hair cells, C57Bl/6 otic progenitors were plated at 10,000 cells/well of a 96 well plate and treated with WNT agonist (CHIR99021; 3 μM) and the above mentioned compounds for 30 days.

COc1cc(-c2cc(-c3ccc(N4CCNCC4)cc3)cnc2C)cc(OC)c1OC [compound 51, LDN-214117]
stemness reprogramming, average growth (% otic progenitors cultured in presence of GF+CHIR): particularly good candidates
